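Exposure lasted 48 hours, with cells grown in 96-well plates and compounds tested at five concentrations. GI50: concentration for 50% inhibition of growth.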 Activity calls are given as the source filed them. Cut-off read from the data, not from the text of the source: active = GI50 up to about 1.1 µM and inactive = higher.
Legend:
Experiment in all cases: growth of human tumour cells (NCI), 48 h
[1] = system: CAKI-1
[2] = system: HCT-15
[3] = system: U-251
[4] = system: ACHN
[5] = system: SNB-19
[6] = system: UACC-62
[7] = system: OVCAR-3
[8] = system: OVCAR-8
[9] = system: A549
[10] = system: HCC 2998
[11] = system: PC-3
[12] = system: MDA-MB-231
[13] = system: KM12
[14] = system: UO-31
[15] = system: K562
[16] = system: HOP-92
[17] = system: M14
[18] = system: SK-OV-3
[19] = system: OVCAR-4
[20] = system: OVCAR-5
[21] = system: EKVX
[22] = system: BT-549
[23] = system: LOX IMVI
[24] = system: NCI/ADR-RES
[25] = system: CCRF-CEM
[26] = system: Hs-578T
[27] = system: MDA-N
[28] = system: SK-MEL-2
[29] = system: NCI-H226
[30] = system: MOLT-4
[31] = system: NCI-H460
[32] = system: SK-MEL-28
[33] = system: SW-620
[34] = system: A498
[35] = system: Malme-3M
[36] = system: HCT-116
[37] = system: 786-0
[38] = system: HL-60
[39] = system: RXF 393
[40] = system: HOP-62
[41] = system: SF-295
[42] = system: NCI-H23
[43] = system: UACC-257
[44] = system: TK-10
[45] = system: SF-539
[46] = system: HT-29
[47] = system: MCF7
[48] = system: SNB-75
[49] = system: IGROV-1
[50] = system: SK-MEL-5
[51] = system: COLO 205
[52] = system: SN12C
[53] = system: SR
[54] = system: NCI-H522
[55] = system: RPMI-8226
[56] = system: MDA-MB-435
[57] = system: SF-268
[58] = system: DU-145

## Cn1c(=O)n2c(-c3ccccc3)c(-c3ccccc3)n2c1=O
[1]
  GI50: > 100 µM (inactive)
[2]
  GI50: > 100 µM
[3]
  GI50: > 100 µM (inactive)
[4]
  GI50: > 100 µM (inactive)
[5]
  GI50: > 100 µM (inactive)
[6]
  GI50: > 100 µM (inactive)
[7]
  GI50: > 100 µM (inactive)
[8]
  GI50: > 100 µM (inactive)
[9]
  GI50: > 100 µM (inactive)
[10]
  GI50: > 100 µM (inactive)
[11]
  GI50: > 100 µM (inactive)
[12]
  GI50: > 100 µM (inactive)
[13]
  GI50: > 100 µM (inactive)
[14]
  GI50: 82 µM (inactive)
[15]
  GI50: > 100 µM (inactive)
[16]
  GI50: > 100 µM (inactive)
[17]
  GI50: > 100 µM (inactive)
[18]
  GI50: > 100 µM (inactive)
[19]
  GI50: > 100 µM (inactive)
[20]
  GI50: > 100 µM (inactive)
[21]
  GI50: > 100 µM (inactive)
[22]
  GI50: > 100 µM (inactive)
[23]
  GI50: > 100 µM (inactive)
[24]
  GI50: > 100 µM (inactive)
[25]
  GI50: > 100 µM (inactive)
[26]
  GI50: > 100 µM (inactive)
[27]
  GI50: > 100 µM (inactive)
[28]
  GI50: > 100 µM (inactive)
[29]
  GI50: > 100 µM (inactive)
[30]
  GI50: > 100 µM (inactive)
[31]
  GI50: > 100 µM (inactive)
[32]
  GI50: > 100 µM (inactive)
[33]
  GI50: > 100 µM (inactive)
[34]
  GI50: > 100 µM (inactive)
[35]
  GI50: > 100 µM (inactive)
[36]
  GI50: > 100 µM (inactive)
[37]
  GI50: > 100 µM (inactive)
[38]
  GI50: 46.9 µM (inactive)
[39]
  GI50: > 100 µM (inactive)
[40]
  GI50: > 100 µM (inactive)
[41]
  GI50: > 100 µM (inactive)
[42]
  GI50: > 100 µM (inactive)
[43]
  GI50: > 100 µM (inactive)
[44]
  GI50: > 100 µM (inactive)
[45]
  GI50: > 100 µM (inactive)
[46]
  GI50: > 100 µM (inactive)
[47]
  GI50: > 100 µM (inactive)
[48]
  GI50: 99.1 µM (inactive)
[49]
  GI50: > 100 µM (inactive)
[50]
  GI50: > 100 µM (inactive)
[51]
  GI50: > 100 µM (inactive)
[52]
  GI50: > 100 µM (inactive)
[53]
  GI50: > 100 µM (inactive)

## Oc1ccc2ccccc2c1/N=N/c1cc(Cl)ccc1Cl
[1]
  GI50: 34.4 µM (inactive)
[2]
  GI50: > 50 µM
[3]
  GI50: 9.16 µM (inactive)
[4]
  GI50: 11 µM (inactive)
[5]
  GI50: 15.8 µM (inactive)
[6]
  GI50: 15.9 µM (inactive)
[54]
  GI50: 17.1 µM (inactive)
[7]
  GI50: 19.5 µM (inactive)
[8]
  GI50: 10.4 µM (inactive)
[9]
  GI50: 17 µM (inactive)
[11]
  GI50: 43.5 µM (inactive)
[55]
  GI50: > 50 µM (inactive)
[12]
  GI50: 11.8 µM (inactive)
[13]
  GI50: 17.7 µM (inactive)
[56]
  GI50: > 50 µM (inactive)
[14]
  GI50: 21.3 µM (inactive)
[15]
  GI50: 20.7 µM (inactive)
[16]
  GI50: 22.3 µM (inactive)
[17]
  GI50: 14.6 µM (inactive)
[57]
  GI50: 17.1 µM (inactive)
[18]
  GI50: 10.8 µM (inactive)
[19]
  GI50: 13.9 µM (inactive)
[20]
  GI50: 11.7 µM (inactive)
[21]
  GI50: 9.06 µM (inactive)
[22]
  GI50: > 50 µM (inactive)
[24]
  GI50: 31.6 µM (inactive)
[25]
  GI50: 17.9 µM (inactive)
[26]
  GI50: 10.1 µM (inactive)
[27]
  GI50: 27.5 µM (inactive)
[28]
  GI50: 28.4 µM (inactive)
[29]
  GI50: 49 µM (inactive)
[30]
  GI50: 15.4 µM (inactive)
[32]
  GI50: > 50 µM (inactive)
[33]
  GI50: 32.6 µM (inactive)
[35]
  GI50: 24.1 µM (inactive)
[36]
  GI50: 15.6 µM (inactive)
[37]
  GI50: 9.14 µM (inactive)
[38]
  GI50: 22.6 µM (inactive)
[39]
  GI50: 27 µM (inactive)
[40]
  GI50: 10 µM (inactive)
[41]
  GI50: 9.73 µM (inactive)
[42]
  GI50: 44.5 µM (inactive)
[43]
  GI50: > 50 µM (inactive)
[44]
  GI50: 16 µM (inactive)
[46]
  GI50: 19.3 µM (inactive)
[48]
  GI50: 11.3 µM (inactive)
[49]
  GI50: 7.67 µM (inactive)
[50]
  GI50: 38.5 µM (inactive)
[51]
  GI50: 23.3 µM (inactive)
[52]
  GI50: 13.3 µM (inactive)

## O=C(CNc1cccc(Cl)c1)Nn1c(-c2ccccc2)nc2ccccc2c1=O
[58]
  GI50: 16 µM (inactive)
[3]
  GI50: 1.74 µM (inactive)
[4]
  GI50: 13.6 µM (inactive)
[5]
  GI50: 15.7 µM (inactive)
[6]
  GI50: 1.69 µM (inactive)
[54]
  GI50: 1.42 µM (inactive)
[7]
  GI50: 7.1 µM (inactive)
[8]
  GI50: 4.34 µM (inactive)
[9]
  GI50: 19.7 µM (inactive)
[10]
  GI50: 10.4 µM (inactive)
[11]
  GI50: 10.2 µM (inactive)
[55]
  GI50: 10 µM (inactive)
[12]
  GI50: 3.37 µM (inactive)
[13]
  GI50: 10.9 µM (inactive)
[56]
  GI50: 4.2 µM (inactive)
[14]
  GI50: 17.2 µM (inactive)
[15]
  GI50: 2.66 µM (inactive)
[16]
  GI50: 2.31 µM (inactive)
[17]
  GI50: 2.09 µM (inactive)
[57]
  GI50: 4.71 µM (inactive)
[18]
  GI50: 10.8 µM (inactive)
[19]
  GI50: 3.58 µM (inactive)
[20]
  GI50: 18.6 µM (inactive)
[21]
  GI50: 17.9 µM (inactive)
[22]
  GI50: 2.16 µM (inactive)
[23]
  GI50: 1.21 µM (inactive)
[25]
  GI50: 1.58 µM (inactive)
[26]
  GI50: 19.2 µM (inactive)
[27]
  GI50: 9.59 µM (inactive)
[29]
  GI50: 13.3 µM (inactive)
[30]
  GI50: 1.35 µM (inactive)
[31]
  GI50: 10.5 µM (inactive)
[32]
  GI50: 8.02 µM (inactive)
[33]
  GI50: 2.47 µM (inactive)
[34]
  GI50: 19.5 µM (inactive)
[36]
  GI50: 1.77 µM (inactive)
[37]
  GI50: 2.77 µM (inactive)
[38]
  GI50: 2.95 µM (inactive)
[40]
  GI50: 14.1 µM (inactive)
[41]
  GI50: 14.1 µM (inactive)
[42]
  GI50: 2.4 µM (inactive)
[43]
  GI50: 14 µM (inactive)
[44]
  GI50: > 10 µM (inactive)
[45]
  GI50: 3.69 µM (inactive)
[46]
  GI50: 5.9 µM (inactive)
[47]
  GI50: 2.04 µM (inactive)
[48]
  GI50: 3.61 µM (inactive)
[49]
  GI50: 4.35 µM (inactive)
[50]
  GI50: 1.53 µM (inactive)
[51]
  GI50: 3.83 µM (inactive)
[52]
  GI50: 4.13 µM (inactive)
[53]
  GI50: 4.6 µM (inactive)

From ChEMBL document CHEMBL1201862, “PubChem BioAssay data set” (2004)
